Assay results published in patent US11414425B2 (priority 2018, dated 2022).

Legend:
α5β3γ2 GABAA receptors = α5β3γ2 GABAA receptors (Homo sapiens, UniProt P18507+P31644); test: [3H]Ro15-1788 binding, membranes of Ltk cells stably expressing α5β3γ2 GABAA receptors; details: ranges; inhibition of [3H]Ro15-1788 binding
GABAA receptors (α5β2γ2) = target: T1, GABAA receptors (α5β2γ2) (Homo sapiens, UniProt P18507+P31644); test: Positive allosteric modulator activity: potentiation of EC20 GABA current in oocytes; format: cell-based; details: read-out: GABA α5 Functional Data (potentiation of EC20 GABA); @ 100 nM; ranges
T1 construct: expressed in transfected cells
Procedure: On day 1, 1 ng/32 nL of GABAA α5β2γ2 cDNA was injected into one oocyte. Test starts on day 2. The cDNA injected to the oocytes was a mix of alpha, beta and gamma, their ratio is 1:1:10 (by weight) and the total weight of the mixed 3 subunits to be injected in one oocyte was 1 ng in 32 nl volume. The injected oocytes can also be tested on day 3. In such case, the cDNA amount injected to the oocytes should be reduced by 20%.
1). 8 oocytes were placed in 8 chambers of OpusXpress and superfused with Modified Barth's Saline (MBS) at 3 mL/min. Glass electrodes back-filled with 3M KCl (0.5-3 megaohms) were used.
1). New oocytes were used to run new test.
3). […] Oocytes were washed with MBS for 5-10 min.
4). […] Itest was divided by IGABA to obtain potentiation (%).
Test Compounds at Multiple Doses • 1). Repeat the above steps 1), 2) and 3) in the control test. • 2). […] Divide Itest by IGABA to obtain potentiation (%). • 3). Discard all tested oocytes, new oocytes were used and the above steps 1) and 2) were repeated to test second concentration of the same compound. Each oocyte was used for only one concentration test for a single test compound. The steps were repeated for other test compounds.

T1 sequence (P31644 32-462): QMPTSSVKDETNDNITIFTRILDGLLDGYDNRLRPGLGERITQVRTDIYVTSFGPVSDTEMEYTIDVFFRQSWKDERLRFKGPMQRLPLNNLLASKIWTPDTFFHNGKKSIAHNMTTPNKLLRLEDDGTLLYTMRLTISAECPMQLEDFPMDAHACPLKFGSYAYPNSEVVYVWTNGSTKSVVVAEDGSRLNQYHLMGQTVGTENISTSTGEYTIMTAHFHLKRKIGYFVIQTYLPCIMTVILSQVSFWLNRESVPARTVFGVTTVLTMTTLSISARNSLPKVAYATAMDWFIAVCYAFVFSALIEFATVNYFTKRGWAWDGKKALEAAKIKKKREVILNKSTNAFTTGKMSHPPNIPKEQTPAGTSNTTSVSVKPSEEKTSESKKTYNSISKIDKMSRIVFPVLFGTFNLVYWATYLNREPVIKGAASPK
T1 sequence (P47870 25-512, further chain): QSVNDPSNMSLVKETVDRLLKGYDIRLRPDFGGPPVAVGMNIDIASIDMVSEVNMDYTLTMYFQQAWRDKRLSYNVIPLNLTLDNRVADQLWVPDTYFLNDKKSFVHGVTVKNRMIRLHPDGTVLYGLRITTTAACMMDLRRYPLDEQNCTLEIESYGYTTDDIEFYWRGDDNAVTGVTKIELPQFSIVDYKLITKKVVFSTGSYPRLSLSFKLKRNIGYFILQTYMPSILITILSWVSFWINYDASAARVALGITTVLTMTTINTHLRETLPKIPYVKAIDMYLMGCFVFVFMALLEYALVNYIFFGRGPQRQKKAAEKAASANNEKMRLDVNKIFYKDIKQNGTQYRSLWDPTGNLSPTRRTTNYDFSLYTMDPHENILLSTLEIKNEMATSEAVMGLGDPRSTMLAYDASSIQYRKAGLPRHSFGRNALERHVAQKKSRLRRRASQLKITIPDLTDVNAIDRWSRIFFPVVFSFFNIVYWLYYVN
T1 sequence (P18507 40-475): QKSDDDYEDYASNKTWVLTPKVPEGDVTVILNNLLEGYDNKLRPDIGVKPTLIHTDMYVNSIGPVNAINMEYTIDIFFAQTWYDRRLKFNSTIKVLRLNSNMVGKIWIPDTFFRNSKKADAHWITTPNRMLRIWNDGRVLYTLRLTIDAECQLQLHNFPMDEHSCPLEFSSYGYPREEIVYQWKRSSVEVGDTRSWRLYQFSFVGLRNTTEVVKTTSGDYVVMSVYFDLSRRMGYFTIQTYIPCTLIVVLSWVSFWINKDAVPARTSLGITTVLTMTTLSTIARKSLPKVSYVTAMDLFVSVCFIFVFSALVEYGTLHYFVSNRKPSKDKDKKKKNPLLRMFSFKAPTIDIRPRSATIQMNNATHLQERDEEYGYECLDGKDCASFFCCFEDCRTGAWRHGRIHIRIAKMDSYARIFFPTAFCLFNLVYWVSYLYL
Sequence of α5β3γ2 GABAA receptors (P31644 32-462): as the sequence (P31644 32-462) above
Sequence of α5β3γ2 GABAA receptors (P28472 26-473 partner): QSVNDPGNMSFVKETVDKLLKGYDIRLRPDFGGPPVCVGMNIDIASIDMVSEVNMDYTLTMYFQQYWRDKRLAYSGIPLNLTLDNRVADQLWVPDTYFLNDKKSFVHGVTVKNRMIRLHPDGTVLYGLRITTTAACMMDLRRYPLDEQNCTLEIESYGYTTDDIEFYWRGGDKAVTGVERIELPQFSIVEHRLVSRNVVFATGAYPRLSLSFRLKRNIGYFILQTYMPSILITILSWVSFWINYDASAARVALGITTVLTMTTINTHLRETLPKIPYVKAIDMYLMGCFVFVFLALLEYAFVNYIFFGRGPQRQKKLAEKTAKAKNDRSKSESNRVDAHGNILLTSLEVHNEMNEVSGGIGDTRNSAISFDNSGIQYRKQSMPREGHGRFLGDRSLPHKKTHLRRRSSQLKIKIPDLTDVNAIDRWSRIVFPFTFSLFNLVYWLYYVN
Sequence of α5β3γ2 GABAA receptors (P18507 40-475): as the sequence (P18507 40-475) above

SMILES | Ki (α5β3γ2 GABAA receptors) [nM] | activation at 0.1 µM (GABAA receptors (α5β2γ2)) [%]
COCc1nnc2n1Cc1c(C#Cc3cccnc3OC)ncn1-c1ccc(OC)cc1-2 [Compound 615] | < 100 | 20 to 50
Fc1ccc([C@@H]2COC(c3ncn4c3Cc3cnnn3-c3cc(Cl)ccc3-4)=N2)cc1 [Compound 522] | < 100 | 5 to 20
Clc1ccc2c(c1)-n1nncc1Cc1c(COCc3ccccc3)ncn1-2 [Compound 544] | < 100 | 5 to 20
COCc1nnc2n1Cc1c(C#Cc3cnc(C)n3C)ncn1-c1ccc(Cl)cc1-2 [Compound 671] | < 100 | > 50
COCc1nnc2n1Cc1c(C#Cc3cnccn3)ncn1-c1ccc(OC)cc1-2 [Compound 589] | < 100 | > 50
Cc1cncc(C#Cc2ncn3c2Cc2cnnn2-c2cc(Cl)ccc2-3)c1 [Compound 618] | < 100 | 20 to 50
COc1ccc2c(c1)-n1nncc1Cc1c(C3=N[C@@H](c4ccc(F)cc4)CO3)ncn1-2 [Compound 367] | < 100 | 5 to 20
FC(F)(F)Oc1ccc2c(c1)-n1nncc1Cc1c(C3=N[C@H](c4ccccc4)CO3)ncn1-2 [Compound 507] | < 100 | 5 to 20
Cc1nnc(-c2ncn3c2Cc2cnnn2-c2cc(Cl)ccc2-3)o1 [Compound 508] | < 100 | 5 to 20
COc1ccc2c(c1)-n1nncc1Cc1c(C#Cc3cncc(C)c3)ncn1-2 [Compound 617] | < 100 | 5 to 20
COc1ccc(C#Cc2ncn3c2Cn2c(COC(F)F)nnc2-c2cc(Cl)ccc2-3)cn1 [Compound 616] | < 100 | 5 to 20
COCc1nnc2n1Cc1c(C#Cc3cnc(OC)s3)ncn1-c1ccc(Cl)cc1-2 [Compound 606, 5-((3-chloro-7-(methoxymethyl)-9H-benzo[f]imidazo[1,5-a][1,2,4]triazolo[4,3-d][1,4]diazepin-10-yl)ethynyl)-2-methoxythiazole] | < 100 | 20 to 50
COCc1nnc2n1Cc1c(C#Cc3ncc(C)s3)ncn1-c1ccc(Cl)cc1-2 [Compound 607] | < 100 | 20 to 50
COc1ccc2c(c1)-n1nncc1Cc1c(C3=N[C@H](c4cccc(Cl)c4)CO3)ncn1-2 [Compound 516] | < 100 | 5 to 20
COc1ccc2c(c1)-n1nncc1Cc1c(C#Cc3cnc(C)n3C)ncn1-2 [Compound 667] | < 100 | > 50
COCc1nnc2n1Cc1c(C#Cc3cnc(C)[nH]3)ncn1-c1ccc(Cl)cc1-2 [Compound 681] | < 100 | > 50
Cc1noc(-c2ncn3c2Cc2cnnn2-c2cc(Br)ccc2-3)n1 [Compound 473] | < 100 | 5 to 20
COc1ccc2c(c1)-n1nncc1Cc1c(C#Cc3ccnn3C)ncn1-2 [Compound 669] | < 100 | > 50
COCc1nnc2n1Cc1c(C3=NC(C)CO3)ncn1-c1ccc(Cl)cc1-2 (centres unmarked) [Compound 243] | < 100 | 20 to 50
COCc1nnc2n1Cc1c(C#Cc3ccc4nccn4c3)ncn1-c1ccc(Cl)cc1-2 [Compound 678] | < 100 | 20 to 50
COCc1nnn2c1Cc1c(C3=NC[C@H](c4ccc(Cl)cc4)O3)ncn1-c1ccc(OC)cc1-2 [Compound 636] | < 100 | 5 to 20
FC(F)Oc1ccc2c(c1)-n1nncc1Cc1c(C#CC3(c4ccccc4)CC3)ncn1-2 [Compound 504] | < 100 | 5 to 20
CCOC(=O)c1ncn2c1Cc1c(Cc3cccnc3)nnn1-c1cc(C)ccc1-2 [Compound 111] | < 100 | 20 to 50
Cc1noc(-c2ncn3c2Cc2c(Cc4cccc(F)c4)nnn2-c2cc(OC(F)F)ccc2-3)n1 [Compound 491] | < 100 | 20 to 50
FC(F)(F)c1ccc2c(c1)-n1nncc1Cc1c(-c3ncco3)ncn1-2 [Compound 475] | < 100 | 5 to 20
CCc1cncc(C#Cc2ncn3c2Cn2c(COC)nnc2-c2cc(Cl)ccc2-3)c1 [Compound 604] | < 100 | > 50
COCc1nnn2c1Cc1c(C#Cc3ccc(OC)nc3)ncn1-c1ccc(OC)cc1-2 [Compound 641] | < 100 | 20 to 50
COCc1nnc2n1Cc1c(C#Cc3nc(C)cs3)ncn1-c1ccc(Cl)cc1-2 [Compound 605] | < 100 | > 50
